The IC50 is the midpoint of a concentration-inhibition curve. High values mean a need for much substance, low ones inhibition by little substance.

The target in data set [1] is Acetylcholinesterase (Electrophorus electricus, UniProt O42275). The data set is described as follows: Inhibition of electric eel AChE using acetylthiocholine iodide as substrate incubated for 6 mins prior to substrate addition measured after 60 to 180 secs by Ellman's method. (In Ellman's method for cholinesterases, released thiocholine reacts with DTNB.)
For data set [2], the target named is Cholinesterase (Equus caballus, UniProt P81908).
In data set [3] the target is T1, Amine oxidase [flavin-containing] B (Homo sapiens, UniProt P27338).
T1 sequence (P27338 whole entry): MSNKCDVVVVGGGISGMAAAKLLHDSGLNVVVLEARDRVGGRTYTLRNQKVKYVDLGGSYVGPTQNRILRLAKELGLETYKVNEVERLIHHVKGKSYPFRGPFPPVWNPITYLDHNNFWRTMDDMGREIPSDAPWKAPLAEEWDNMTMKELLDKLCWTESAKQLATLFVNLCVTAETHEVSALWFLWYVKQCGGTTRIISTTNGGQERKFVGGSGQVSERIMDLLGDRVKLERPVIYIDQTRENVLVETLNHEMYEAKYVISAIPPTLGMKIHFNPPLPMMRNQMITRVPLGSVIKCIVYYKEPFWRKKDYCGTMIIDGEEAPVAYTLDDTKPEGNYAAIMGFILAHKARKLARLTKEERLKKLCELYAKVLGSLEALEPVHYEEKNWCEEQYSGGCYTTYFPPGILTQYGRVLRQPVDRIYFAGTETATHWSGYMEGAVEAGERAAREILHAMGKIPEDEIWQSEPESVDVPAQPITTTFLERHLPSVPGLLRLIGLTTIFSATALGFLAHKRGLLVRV

The target in data set [4] is T2, Amine oxidase [flavin-containing] A (Homo sapiens, UniProt P21397).
T2 sequence (P21397 whole entry): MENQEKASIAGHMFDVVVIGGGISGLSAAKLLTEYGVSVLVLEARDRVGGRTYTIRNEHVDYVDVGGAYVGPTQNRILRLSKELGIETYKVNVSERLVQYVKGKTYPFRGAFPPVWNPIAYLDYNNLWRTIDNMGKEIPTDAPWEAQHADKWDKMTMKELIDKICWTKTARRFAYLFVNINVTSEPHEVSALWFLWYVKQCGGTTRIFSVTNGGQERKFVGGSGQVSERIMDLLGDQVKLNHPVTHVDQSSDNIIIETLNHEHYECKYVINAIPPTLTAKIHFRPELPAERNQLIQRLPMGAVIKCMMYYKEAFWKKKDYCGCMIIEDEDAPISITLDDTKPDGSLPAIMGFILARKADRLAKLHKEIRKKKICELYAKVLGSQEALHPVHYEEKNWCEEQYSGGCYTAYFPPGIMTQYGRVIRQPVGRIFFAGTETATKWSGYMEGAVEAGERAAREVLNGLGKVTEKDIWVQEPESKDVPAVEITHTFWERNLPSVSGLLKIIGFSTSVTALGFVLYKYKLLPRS

The species entered for data set [5] is Homo sapiens. The data set can be described thus: Selectivity index, ratio of IC50 for human MAO-B to IC50 for human MAO-A.
Data set [6] has as its target Acetylcholinesterase (Electrophorus electricus) (UniProt O42275). The data set is described as follows: Mixed-type inhibition of electric eel AChE using acetylthiocholine iodide as substrate incubated for 15 mins prior to substrate addition by Lineweaver-Burk plot analysis.
Data set [7] can be described thus: Cytotoxicity against human SH-SY5Y cells assessed as cell viability at 5 uM after 24 hrs by MTT assay. The settings on record: read-out: Activity. Type of data set: cell-based. For orientation: Tetrazolium dyes change colour on reduction, which living cells bring about.
Data set [8] in a line: Cytotoxicity against human SH-SY5Y cells assessed as cell viability at 25 uM after 24 hrs by MTT assay. In kind it is cell-based. The settings on record: read-out: Activity.
Data set [9] in a line: Cytotoxicity against human SH-SY5Y cells assessed as cell viability at 1 uM after 24 hrs by MTT assay. In kind it is cell-based. The settings on record: read-out: Activity.
A short description of data set [10]: Cytotoxicity against human SH-SY5Y cells assessed as cell viability at 50 uM after 24 hrs by MTT assay. Type of data set: cell-based. The following applies: read-out: Activity.
Data set [11] in a line: Cytotoxicity against human SH-SY5Y cells assessed as cell viability at 10 uM after 24 hrs by MTT assay. The settings on record: read-out: Activity. In kind it is cell-based.

Activity calls are given as the source filed them. No cut-off for these calls is given here.

Cholinesterase, sequence (P81908 whole entry): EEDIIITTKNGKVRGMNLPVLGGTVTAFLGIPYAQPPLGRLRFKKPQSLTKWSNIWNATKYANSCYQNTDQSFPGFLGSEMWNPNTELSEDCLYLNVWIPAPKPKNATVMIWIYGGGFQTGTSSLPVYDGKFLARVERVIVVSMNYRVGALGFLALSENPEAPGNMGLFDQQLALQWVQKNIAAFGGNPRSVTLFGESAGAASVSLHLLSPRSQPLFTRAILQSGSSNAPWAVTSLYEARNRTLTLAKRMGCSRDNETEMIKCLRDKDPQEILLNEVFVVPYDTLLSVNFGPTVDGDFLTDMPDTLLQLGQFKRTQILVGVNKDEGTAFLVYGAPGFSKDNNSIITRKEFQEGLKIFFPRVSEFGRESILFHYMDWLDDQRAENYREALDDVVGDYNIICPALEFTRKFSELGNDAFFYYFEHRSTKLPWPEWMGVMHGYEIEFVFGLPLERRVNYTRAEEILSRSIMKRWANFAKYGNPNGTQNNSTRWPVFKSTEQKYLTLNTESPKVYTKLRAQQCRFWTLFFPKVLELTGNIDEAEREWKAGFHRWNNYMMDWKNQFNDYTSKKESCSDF
Acetylcholinesterase, sequence (O42275 whole entry): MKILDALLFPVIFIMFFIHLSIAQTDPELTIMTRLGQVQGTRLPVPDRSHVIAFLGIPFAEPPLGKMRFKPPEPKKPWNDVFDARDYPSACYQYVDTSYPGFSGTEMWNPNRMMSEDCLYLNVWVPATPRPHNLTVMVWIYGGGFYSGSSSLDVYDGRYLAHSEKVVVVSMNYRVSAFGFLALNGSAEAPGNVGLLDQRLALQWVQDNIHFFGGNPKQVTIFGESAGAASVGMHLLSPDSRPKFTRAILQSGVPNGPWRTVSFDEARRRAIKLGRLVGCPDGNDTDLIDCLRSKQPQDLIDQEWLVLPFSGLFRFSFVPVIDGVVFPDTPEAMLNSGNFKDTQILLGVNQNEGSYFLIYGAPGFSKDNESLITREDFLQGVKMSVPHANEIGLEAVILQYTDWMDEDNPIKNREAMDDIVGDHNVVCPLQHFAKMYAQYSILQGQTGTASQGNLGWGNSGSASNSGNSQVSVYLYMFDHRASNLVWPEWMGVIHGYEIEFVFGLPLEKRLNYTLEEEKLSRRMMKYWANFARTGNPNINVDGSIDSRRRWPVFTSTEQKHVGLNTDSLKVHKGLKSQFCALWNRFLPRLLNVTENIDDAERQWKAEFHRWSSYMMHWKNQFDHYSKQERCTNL
Acetylcholinesterase (Electrophorus electricus), sequence (O42275 24-633 limits assumed): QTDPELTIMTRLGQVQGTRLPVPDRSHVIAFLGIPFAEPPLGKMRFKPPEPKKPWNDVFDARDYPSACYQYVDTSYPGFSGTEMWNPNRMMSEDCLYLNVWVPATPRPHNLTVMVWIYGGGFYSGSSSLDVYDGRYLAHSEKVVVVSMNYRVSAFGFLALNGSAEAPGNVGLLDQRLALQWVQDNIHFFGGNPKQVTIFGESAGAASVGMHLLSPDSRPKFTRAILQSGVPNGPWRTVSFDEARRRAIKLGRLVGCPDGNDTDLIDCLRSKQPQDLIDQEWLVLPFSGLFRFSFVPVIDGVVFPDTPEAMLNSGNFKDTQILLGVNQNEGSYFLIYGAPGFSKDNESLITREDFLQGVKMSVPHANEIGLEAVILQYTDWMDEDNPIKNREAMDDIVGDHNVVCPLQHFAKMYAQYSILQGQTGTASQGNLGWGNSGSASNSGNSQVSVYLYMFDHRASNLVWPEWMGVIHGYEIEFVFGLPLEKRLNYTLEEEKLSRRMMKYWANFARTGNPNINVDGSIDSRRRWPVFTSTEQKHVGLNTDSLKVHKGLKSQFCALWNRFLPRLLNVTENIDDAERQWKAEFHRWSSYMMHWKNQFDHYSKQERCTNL

With `Oc1ccc(/C=C/c2cc(O)cc(O)c2)cc1` [RESVERATROL], the IC50 in data set [1] stood at 165 µM; in data set [2], 752 µM.

`COc1cc(/C=C/c2ccc(OCCCCCCCCN(C)Cc3ccccc3)cc2)cc(OC)c1`: the IC50 in data set [3] was greater than 100 µM; in [1] it was 26.5 µM; in data set [2], 46.8 µM; in data set [4] it was greater than 100 µM.

As to `COc1cc(/C=C/c2ccc(OCCCCCCN3CCOCC3)cc2)cc(OC)c1`, the 50% inhibitory concentration (IC50) in data set [3] is greater than 100 µM; in data set [1], 24.4 µM; in [2] it was 34.3 µM; in data set [4] it was greater than 100 µM.

Consider `COc1cc(/C=C/c2ccc(OCCCCCN(C)Cc3ccccc3)cc2)cc(OC)c1`, for which the half-inhibitory concentration (IC50) in [3] worked out at 16.2 µM; in [1] it was 39.2 µM; in data set [2], 43.7 µM; in data set [4], 97.4 µM. Further, in [5], the Ratio IC50 came to 0.16.

Regarding `CCN(CCCCCCOc1ccc(/C=C/c2cc(OC)cc(OC)c2)cc1)Cc1ccccc1`, the 50% inhibitory concentration (IC50) was 58.3 µM in data set [3], 1.56 µM in data set [1], 3.64 µM in [2] and 89.6 µM in data set [4]. For the same compound, the inhibition entry in data set [6] was “Active”. In addition, the Ratio IC50 in [5] was 0.65.

For the compound `COc1cc(/C=C/c2ccc(OCCCCN(C)Cc3ccccc3)cc2)cc(OC)c1`, the half-maximal inhibitory concentration (IC50) in data set [3] was 34.6 µM; in data set [1] it was 60.9 µM; in [2], 40.6 µM; in data set [4], greater than 100 µM. In addition, in data set [5], the Ratio IC50 is less than 0.35.

For the compound `COc1cc(/C=C/c2ccc(OCCCCCCN3CCCCC3)cc2)cc(OC)c1`, the concentration for half-maximal inhibition (IC50) was 14.2 µM in data set [3], 5.02 µM in data set [1], 10.7 µM in data set [2] and 29.8 µM in [4]. The Ratio IC50 in data set [5] stood at 0.48.

In the case of `COc1cc(/C=C/c2ccc(OCCCCCCN(C)C)cc2)cc(OC)c1`, the IC50 in data set [3] was found to be 7.52 µM; in data set [1] it was 8.19 µM; in data set [2] it was 10.3 µM; in data set [4] it was 37.5 µM. Further, in data set [5], the Ratio IC50 came to 0.2.

With `CCN(CCCCCCOc1ccc(/C=C/c2cc(OC)cc(OC)c2)cc1)Cc1cccc(F)c1`, the concentration for half-maximal inhibition (IC50) in data set [3] is 97.5 µM; in data set [1] it was 77.8 µM; in data set [2], 52 µM; in data set [4], greater than 100 µM. Further, in data set [5], the Ratio IC50 is less than 0.97.

On to `CCN(CCCCCCOc1ccc(/C=C/c2cc(OC)cc(OC)c2)cc1)Cc1ccc(OC)cc1`, for which the IC50 in data set [3] was greater than 100 µM; in [1], 89.7 µM; in data set [2] it was greater than 100 µM; in data set [4], greater than 100 µM.

Take `COc1cc(/C=C/c2ccc(OCCCCCCN3CCC(O)CC3)cc2)cc(OC)c1`: the half-maximal inhibitory concentration (IC50) in data set [3] is 14.6 µM; in data set [1], 17.2 µM; in [2] it was 23.1 µM; in data set [4], greater than 100 µM. Moreover, the Ratio IC50 in [5] was less than 0.14.

`CCN(CCCCCCOc1ccc(/C=C/c2cc(OC)cc(OC)c2)cc1)Cc1ccc(F)cc1`: the IC50 in [3] is greater than 100 µM; in data set [1], 92.3 µM; in data set [2], 85.4 µM; in [4] it was greater than 100 µM.

Take `CCCN(CCC)CCCCCCOc1ccc(/C=C/c2cc(OC)cc(OC)c2)cc1`: the half-inhibitory concentration (IC50) in data set [3] is 92.4 µM; in data set [1], 12.1 µM; in data set [2], 7.49 µM; in data set [4], 89.4 µM. For the same compound, the Ratio IC50 in [5] stood at 1.03.

With `CCN(CCCCCCOc1ccc(/C=C/c2cc(OC)cc(OC)c2)cc1)Cc1ccccc1OC`, the IC50 in data set [3] is greater than 100 µM; in [1], 54.9 µM; in data set [2] it was 2.27 µM; in data set [4], greater than 100 µM.

`COc1cc(/C=C/c2ccc(OCCCN(C)Cc3ccccc3)cc2)cc(OC)c1`: the IC50 in data set [3] was 5.01 µM; in data set [1] it was 58.1 µM; in data set [2] it was 77.3 µM; in data set [4] it was greater than 100 µM. In data set [5], the Ratio IC50 is less than 0.5.

On to `COc1cc(/C=C/c2ccc(OCCCCCCCN(C)Cc3ccccc3)cc2)cc(OC)c1`, for which the IC50 in [3] is 63.8 µM; in data set [1], 23.4 µM; in data set [2], 41.7 µM; in data set [4], greater than 100 µM. In addition, the Ratio IC50 in [5] was less than 0.64.

Take `COc1cc(/C=C/c2ccc(OCCN(C)Cc3ccccc3)cc2)cc(OC)c1`: the 50% inhibitory concentration (IC50) in data set [3] was 89 µM; in data set [1], 79.3 µM; in data set [2], 89.6 µM; in [4], greater than 100 µM. Further, the Ratio IC50 in [5] is less than 0.89.

Consider `COc1cc(/C=C/c2ccc(OCCCCCCN3CCCC3)cc2)cc(OC)c1`, for which the viability at 24 h, 5 µM in [7] stood at 95.6%. The concentration for half-maximal inhibition (IC50) in data set [3] was found to be 12.2 µM; in [1] it was 6.55 µM; in [2] it was 8.04 µM; in data set [4], 17.6 µM. Besides, in data set [8], the viability at 24 h, 25 µM amounted to 93.2%. Also, the viability at 24 h, 1 µM in data set [9] was 97%. In addition, the viability at 24 h, 50 µM in data set [10] was 90.8%. Also, in data set [11], the viability at 24 h, 10 µM was 94.4%. The Ratio IC50 in data set [5] is 0.7.

For the compound `COc1cc(/C=C/c2ccc(OCCCCCCN3CCCCC3C)cc2)cc(OC)c1` (stereo unspecified), the IC50 in data set [3] was 16.3 µM; in data set [1] it was 4.07 µM; in [2], 10.1 µM; in data set [4] it was 24.3 µM. Also, the Ratio IC50 in data set [5] was 0.67.

As for `CCN(CC)CCCCCCOc1ccc(/C=C/c2cc(OC)cc(OC)c2)cc1`, the half-inhibitory concentration (IC50) in data set [3] came out at 10.1 µM; in data set [1] it was 4.15 µM; in [2], 13.2 µM; in data set [4] it was 33.1 µM. Moreover, the Ratio IC50 in data set [5] is 0.31.

Consider `CCN(CCCCCCOc1ccc(/C=C/c2cc(OC)cc(OC)c2)cc1)Cc1cccc(OC)c1`, for which the half-maximal inhibitory concentration (IC50) in [3] is greater than 100 µM; in data set [1], 71.5 µM; in [2], greater than 100 µM; in [4], greater than 100 µM.

`COc1cc(/C=C/c2ccc(OCCCCCCN(C)Cc3ccccc3)cc2)cc(OC)c1`: the IC50 is 40.3 µM in data set [3], 11.7 µM in data set [1], 26.4 µM in data set [2] and 90.4 µM in data set [4]. Moreover, the Ratio IC50 in data set [5] came out at 0.45.

`CCN(CCCCCCOc1ccc(/C=C/c2cc(OC)cc(OC)c2)cc1)Cc1ccccc1F`: the half-inhibitory concentration (IC50) in [3] was greater than 100 µM; in [1] it was 86.6 µM; in data set [2], 53 µM; in data set [4] it was greater than 100 µM.

The values above are taken from ChEMBL document CHEMBL3132840 (Medchemcomm, 2014).
